Positions count from the first letter of the chain named. Read-outs that look alike come from different tables or passages of the source.
Legend:
RET kinase V804M = RET kinase V804M (Homo sapiens, UniProt P07949, V804M); assay: RET Enzyme Assay (CisBio HTRF KinEASE-TK), V804M; assay type: biochemical; details: read-out: RET V804M Enz FRET IC50
RET kinase Wild Type [1] = target: T1, RET kinase Wild Type (Homo sapiens, UniProt P07949);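 note: HTRF kinase activity assay on RET enzyme, 1 h reaction at 22 °C, dual-wavelength readout as percent of control, DMSO-only wells as 100%, pre-quenched reactions as 0%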
G810R mutant RET kinase [2] = target: T2, G810R mutant RET kinase (Homo sapiens, UniProt P07949, G810R);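 note: HTRF KinEASE-TK enzymatic assay with 1 nM recombinant RET G810R, 1 h at 22 °C, dual-wavelength ratiometric readout, 100% control without compound, 0% from pre-quenched reactions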
G810S mutant RET kinase [3] = target: T3, G810S mutant RET kinase (Homo sapiens, UniProt P07949, G810S);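 note: HTRF KinEASE-TK kinase assay with recombinant enzyme, 1 h at 22 °C, dual-wavelength ratiometric read-out, percent of control (DMSO-only = 100, pre-quenched reaction = 0)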
Procedure: (§2) The potency of compounds inhibiting several different RET kinase forms (Wild Type, V804M, G810R, & G810S) were determined using CisBio's HTRF® KinEASE™-TK assay technology. […] After a 1 hour incubation at 22° C., the extent of reaction was determined using a PerkinElmer EnVision multimode plate reader via HTRF dual wavelength detection, and the percent of control (POC) was calculated using a ratiometric emission factor. One hundred POC was determined using DMSO only samples (no compound present), and 0 POC was determined using pre-quenched control reactions.
(§3) The potency of a compound inhibiting G810R or G810S mutant RET kinase was determined using CisBio's HTRF® KinEASE™-TK assay technology. The assays contained G810R or G810S mutant RET produced at Array Biopharma, Inc. (1 nM enzyme). […] After a 1-h incubation at 22° C., the extent of reaction was determined using a PerkinElmer EnVision multimode plate reader via HTRF dual wavelength detection, and the percent of control (POC) was calculated using a ratiometric emission factor. One hundred POC was determined using no test compounds, and 0 POC was determined using pre-quenched control reactions.

[4] = target: T4, HEK-293 cells expressing a Kif5b-RET fusion protein (Homo sapiens, UniProt P07949); assay: RET Cell Assay (phospho-RET Tyr1062); assay type: cell-based; details: HEK-293 Kif5b-RET, 1 hour incubation, phospho-RET normalized to GAPDH; read-out: KIF5B-RET pTYR1062 Cell IC50
T4 construct: KIF5B (N-terminal portion incl. coiled-coil); expressed in transfected cells; host or cells: HEK-293; the other entry of the earlier key: KIF5B (P33176, Kinesin-1 heavy chain)
T4 sequence (P07949 713-1063 limits assumed): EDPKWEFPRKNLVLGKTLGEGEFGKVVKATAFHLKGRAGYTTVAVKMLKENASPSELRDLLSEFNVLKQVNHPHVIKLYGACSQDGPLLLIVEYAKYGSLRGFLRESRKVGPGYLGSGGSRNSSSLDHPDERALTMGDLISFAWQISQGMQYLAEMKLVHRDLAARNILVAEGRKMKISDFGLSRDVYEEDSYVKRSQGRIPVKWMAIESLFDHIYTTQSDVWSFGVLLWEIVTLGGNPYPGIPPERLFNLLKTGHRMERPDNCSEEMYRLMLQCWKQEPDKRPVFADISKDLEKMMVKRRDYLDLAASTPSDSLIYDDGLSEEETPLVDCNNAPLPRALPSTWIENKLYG
How it was run: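 Kif5b-RET HEK-293 cells treated 1 hour with compound in DMEM (0.5% DMSO final), then fixed and immunostained for phospho-RET Tyr1062, normalized to GAPDH by infrared fluorescence. IC50 where the 4-parameter logistic fit of POC crosses 50.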

[5] = target: T5, HEK-293 cells expressing a G810R mutant RET Kif5b-RET fusion protein (Homo sapiens, UniProt P07949, G810R); assay: RET G810R Mutant Cell Assay (phospho-RET Tyr1062); assay type: cell-based; details: HEK-293 Kif5b-RET G810R, 1 hour incubation, phospho-RET normalized to GAPDH
T5 construct: KIF5B (N-terminal portion incl. coiled-coil); expressed in transfected cells; host or cells: HEK-293; the other entry of the earlier key: KIF5B (P33176, Kinesin-1 heavy chain)
T5 sequence (P07949 713-1063 G810R limits assumed): T4 sequence (P07949 713-1063 limits assumed) with G98R
How it was run: (§1)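 Engineered HEK-293 cells were treated 1 h with compound in DMEM, 0.5% DMSO final, then fixed, permeabilized and immunostained for phospho-RET Tyr1062 and GAPDH. In-cell fluorescence pRET signal was normalized to GAPDH; IC50 taken from a 4-parameter logistic fit of percent of control at 50 POC.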

[6] = target: T6, HEK-293 cells expressing a G810S mutant RET Kif5b-RET fusion protein (Homo sapiens, UniProt P07949, G810S); assay: RET G810S Mutant Cell Assay (phospho-RET Tyr1062); assay type: cell-based; details: HEK-293 Kif5b-RET G810S, 1 hour incubation, phospho-RET normalized to GAPDH
T6 construct: KIF5B (N-terminal portion incl. coiled-coil); expressed in transfected cells; host or cells: HEK-293
T6 sequence (P07949 713-1063 G810S limits assumed): T4 sequence (P07949 713-1063 limits assumed) with G98S
How it was run: as §1

RET kinase Wild Type [7] = target: T1, RET kinase Wild Type; assay: biochemical
G810R mutant RET kinase [8] = target: T2, G810R mutant RET kinase; assay: biochemical
G810S mutant RET kinase [9] = target: T3, G810S mutant RET kinase; assay: biochemical
Procedure: as §2, §3

[10] = V804M RET, 1 mM ATP, averaged IC50

T1 sequence (P07949 29-1114): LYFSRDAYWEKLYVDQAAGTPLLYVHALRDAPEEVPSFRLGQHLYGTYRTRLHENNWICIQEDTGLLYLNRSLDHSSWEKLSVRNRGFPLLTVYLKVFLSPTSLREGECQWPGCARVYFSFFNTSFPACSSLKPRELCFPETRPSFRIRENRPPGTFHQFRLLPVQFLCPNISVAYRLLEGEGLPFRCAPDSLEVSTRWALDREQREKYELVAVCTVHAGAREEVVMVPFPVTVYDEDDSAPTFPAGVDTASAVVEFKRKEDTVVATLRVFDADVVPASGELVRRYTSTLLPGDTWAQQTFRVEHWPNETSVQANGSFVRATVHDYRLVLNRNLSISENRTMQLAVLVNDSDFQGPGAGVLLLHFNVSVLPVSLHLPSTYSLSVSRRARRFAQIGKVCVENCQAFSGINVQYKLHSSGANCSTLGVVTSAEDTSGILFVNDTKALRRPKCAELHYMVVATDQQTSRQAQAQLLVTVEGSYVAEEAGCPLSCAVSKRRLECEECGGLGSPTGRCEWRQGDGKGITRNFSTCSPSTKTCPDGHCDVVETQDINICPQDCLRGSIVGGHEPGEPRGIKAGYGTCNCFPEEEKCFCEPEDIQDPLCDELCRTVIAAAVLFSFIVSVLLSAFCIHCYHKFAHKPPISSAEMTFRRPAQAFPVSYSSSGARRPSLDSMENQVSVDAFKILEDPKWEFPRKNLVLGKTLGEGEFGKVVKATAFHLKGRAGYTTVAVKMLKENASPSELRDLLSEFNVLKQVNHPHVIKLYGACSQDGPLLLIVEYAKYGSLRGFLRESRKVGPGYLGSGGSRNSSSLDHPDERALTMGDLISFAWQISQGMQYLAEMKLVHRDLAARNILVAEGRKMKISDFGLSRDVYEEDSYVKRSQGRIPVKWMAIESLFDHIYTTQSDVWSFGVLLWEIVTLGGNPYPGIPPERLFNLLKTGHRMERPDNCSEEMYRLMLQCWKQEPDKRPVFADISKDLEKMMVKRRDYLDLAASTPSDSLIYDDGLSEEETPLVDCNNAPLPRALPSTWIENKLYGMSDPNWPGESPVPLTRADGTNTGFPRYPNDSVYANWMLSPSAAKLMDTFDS
T3 sequence (P07949 29-1114 G810S): as the sequence (P07949 29-1114) above, with G782S counted along it
Chain of RET kinase V804M (P07949 29-1114 V804M): as the sequence (P07949 29-1114) above, with V776M counted along it
T2 sequence (P07949 29-1114 G810R): as the sequence (P07949 29-1114) above, with G782R counted along it

| IC50 (RET kinase V804M; [10]) [nM] | IC50 (RET kinase Wild Type [1]) [nM] | IC50 (G810R mutant RET kinase [2]) [nM] | IC50 (G810S mutant RET kinase [3]) [nM] | IC50 [4] [nM] | IC50 [5] [nM] | IC50 (RET kinase V804M) [nM] | IC50 [6] [nM] | IC50 (RET kinase Wild Type [7]) [nM] | IC50 (G810R mutant RET kinase [8]) [nM] | IC50 (G810S mutant RET kinase [9]) [nM] | SMILES |
| --- | --- | --- | --- | --- | --- | --- | --- | --- | --- | --- | --- |
| 505 | 124 | 157 | 425 | – | – | – | – | – | – | – | COC(=O)[C@H]1C[C@H](n2c3c(c4c(N)ncnc42)-c2noc(C4CC4)c2C(=O)CC3)C1 [Example 142, Methyl (1r,3r)-3-(11-amino-3-cyclopropyl-4-oxo-5,6-dihydroisoxazolo[4″,3″:6′,7′]cyclohepta[1′,2′:4,5]pyrrolo[2,3-d]pyrimidin-7(4H)-yl)cyclobutane-1-carboxylate] |
| 31 | 20 | 85 | 101 | 73 | 120 | – | – | – | – | – | C[C@H](n1c2c(c3c(N)ncnc31)-c1noc(C3CC3)c1[C@H](O)CC2)C(F)(F)F (single isomer, unassigned) [Example 145] |
| – | – | – | – | 53 | 262 | 202 | 184 | 45 | 103 | 215 | CC(C)n1c2c(c3c(N)ncnc31)-c1noc(C3CC3)c1C(=O)NC2 [Example 19, 11-amino-3-cyclopropyl-7-isopropyl-6,7-dihydroisoxazolo[4,3-c]pyrimido[5′,4′:4,5]pyrrolo[3,2-e]azepin-4(5H)-one 2,2,2-trifluoroacetate] |
| 6200 | 2640 | 6140 | 3400 | – | – | – | – | – | – | – | Nc1ncnc2c1c1c(n2C2CCNC2)CCC(O)c2c-1noc2C1CC1 (stereo not drawn) [Example 133, (Trans)-11-amino-3-cyclopropyl-7-(pyrrolidin-3-yl)-4,5,6,7-tetrahydroisoxazolo[4″,3″:6′,7′]cyclohepta[1′,2′:4,5]pyrrolo[2,3-d]pyrimidin-4-ol 2,2,2-trifluoroacetate] |
| – | – | – | – | 32 | 89 | 5780 | 71 | 47 | 202 | 204 | CC(C)n1c2c(c3c(N)ncnc31)-c1cc3ccc(C(=O)NC4CC4)cc3n1CCC2 [Example 87, 1-Amino-N-cyclopropyl-5-isopropyl-5,6,7,8-tetrahydropyrimido[5″,4″:4′,5′]pyrrolo[3′,2′:3,4]azepino[1,2-a]indole-11-carboxamide] |
| – | – | – | – | 18 | 46 | 21 | 65 | 8 | 23 | 19 | Nc1ncnc2c1c1c(n2C2CCC(O)C2)CCC(O)c2c-1noc2C1CC1 (stereo not shown) [Example 129, 11-Amino-3-cyclopropyl-7-(3-hydroxycyclopentyl)-4,5,6,7-tetrahydroisoxazolo[4″,3″:6′,7′]cyclohepta[1′,2′:4,5]pyrrolo[2,3-d]pyrimidin-4-ol] |
| – | – | – | – | 33 | 281 | 136 | 101 | 31 | 89 | 58 | CC1Cc2c(c3c(N)ncnc3n2C(C)C)-c2noc(C3CC3)c2C1O (stereo not shown) [Example 61, 11-amino-3-cyclopropyl-7-isopropyl-5-methyl-4,5,6,7-tetrahydroisoxazolo[4″,3″:6′,7′]cyclohepta[1′,2′:4,5]pyrrolo[2,3-d]pyrimidin-4-ol] |
| – | – | – | – | 22 | 103 | 41 | 92 | 13 | 70 | 54 | CC(C)n1c2c(c3c(N)ncnc31)-c1noc(C3CC3)c1[C@@H](O)CC2 (single isomer, unassigned) [Example 54] |
| – | – | – | – | 53 | 144 | 235 | 255 | 58 | 130 | 217 | CC(=O)N1Cc2c(noc2C2CC2)-c2c(n(C(C)C)c3ncnc(N)c23)C1 [Example 36, 1-(11-amino-3-cyclopropyl-7-isopropyl-6,7-dihydroisoxazolo[4,3-c]pyrimido[5′,4′:4,5]pyrrolo[3,2-e]azepin-5(4H)-yl)ethan-1-one 2,2,2-trifluoroacetate] |
| – | – | – | – | 14 | 30 | 41 | 60 | 14 | 97 | 18 | CC(n1c2c(c3c(N)ncnc31)-c1noc(C3CC3)c1C(O)CC2)C(F)(F)F (stereo not shown) [Example 131, 11-Amino-3-cyclopropyl-7-(1,1,1-trifluoropropan-2-yl)-4,5,6,7-tetrahydroisoxazolo[4″,3″:6′,7′]cyclohepta[1′,2′:4,5]pyrrolo[2,3-d]pyrimidin-4-ol] |
| 1940 | 1710 | 4460 | 2320 | – | – | – | – | – | – | – | Nc1ncnc2c1c1c(n2C2CCNC2)CCC(O)c2c-1noc2C1CC1 (stereo not drawn) [Example 132, (Cis)-11-amino-3-cyclopropyl-7-(pyrrolidin-3-yl)-4,5,6,7-tetrahydroisoxazolo[4″,3″:6′,7]cyclohepta[1′,2′:4,5]pyrrolo[2,3-d]pyrimidin-4-ol 2,2,2-trifluoroacetate] |
